Earlier results on one molecule are cited in patent US9398745B2, “Organic composition for protection of crops against black frost and the method for its application” (priority 2014, dated 2016).

The data set relates to animals. The note with it: tests performed on animals.

Take `CC(O)CO` (stereo not shown) [1,2 propanediol]: the toxicity entry is on record as “low toxicity”.
